Reference: US9549552B2, “Active compound combinations having insecticidal properties” (BAYER CROPSCIENCE AKTIENGESELLSCHAFT, priority 2013, dated 2017)

Assays:
Format in all cases: in vivo
Details in all cases: mortality
[1] = tested on: caterpillars of the fall army worm (Spodoptera frugiperda); assay: Spodoptera frugiperda spray test (Example C1, cotton leaves)
Procedure: (§1) Solvent: 7 parts by weight of dimethylformamide
(§2) Emulsifier: alkylaryl polyglycol ether
(§3) To produce a suitable preparation of active compound, 1 part by weight of active compound is mixed with the stated amount of solvent and is diluted with water, containing an emulsifier concentration of 1000 ppm, to the desired concentration. Further test concentrations are prepared by dilution with emulsifier containing water Ammonium salt and/or penetration enhancer in a dosage of 1000 ppm are added if necessary.
Cotton leaves (Gossypium hirsutum) are treated by being sprayed with the preparation of the active compound of the desired concentration and are infested with caterpillars of the fall army worm (Spodoptera frugiperda).
After the specified period of time mortality in % is determined. 100% means all the caterpillars have been killed and 0% means none of the caterpillars have been killed. The mortality values determined thus are recalculated using the Colby-formula (see sheet 1).

[2] = tested on: fall armyworm larvae (Spodoptera frugiperda); assay: Spodoptera frugiperda spray test (Example C2, maize leaf sections)
Procedure: as §3, with “solvents” for “solvent”, “water.” for “water Ammonium salt and/or penetration enhancer in a dosage of 1000 ppm are added if necessary.”
(§4) Maize (Zea mays) leaf sections are sprayed with a preparation of the active ingredient of the desired concentration. Once dry, the leaf sections are infested with fall armyworm larvae (Spodoptera frugiperda).
(§5) After the specified period of time, mortality in % is determined 100% means all caterpillars have been killed and 0% means none of the caterpillars have been killed. The mortality values determined thus are recalculated using the Colby-formula (see sheet 1).

[3] = tested on: mustard beetle larvae (Phaedon cochleariae); assay: Phaedon cochleariae spray test (Example A3, Chinese cabbage leaf disks)
Procedure: as §3, with “solvents” for “solvent”, “water.” for “water Ammonium salt and/or penetration enhancer in a dosage of 1000 ppm are added if necessary.”
Chinese cabbage (Brassica pekinensis) leaf disks are sprayed with a preparation of the active ingredient of the desired concentration. Once dry, the leaf disks are infested with mustard beetle larvae (Phaedon cochleariae).
(§6) After the specified period of time, mortality in % is determined 100% means all beetle larvae have been killed and 0% means none of the beetle larvae have been killed. The mortality values determined thus are recalculated using the Colby-formula (see sheet 1).

[4] = tested on: mustard beetle larvae (Phaedon cochleariae); assay: Phaedon cochleariae spray test (Example A2, cabbage leaves)
Procedure: as §1, §2
as §3, with “added to the desired concentration” for “added”
Cabbage leaves (Brassica oleracea) are treated by being sprayed with the preparation of the active compound of the desired concentration and are infested with mustard beetle larvae (Phaedon cochleariae).
After the specified period of time mortality in % is determined. 100% means all the beetle larvae have been killed and 0% means none of the beetle larvae have been killed. The mortality values determined thus are recalculated using the Colby-formula (see sheet 1).

[5] = tested on: mustard beetle larvae (Phaedon cochleariae); assay: Phaedon cochleariae spray test (Example A1, Chinese cabbage leaf disks)
Procedure: (§7) To produce a suitable preparation of active compound, 1 part by weight of active compound is mixed with the stated amount of solvent and emulsifier, and the concentrate is diluted with emulsifier-containing water to the desired concentration. To produce a suitable preparation of a spore suspension the spores are diluted with emulsifier-containing water to the desired concentration.
Chinese cabbage (Brassica pekinensis) leaf-disks are sprayed with a preparation of the active ingredient of the desired concentration. Once dry, the leaf disks are infested with mustard beetle larvae (Phaedon cochleariae).
as §6

[6] = tested on: two spotted spidermite (Tetranychus urticae); assay: Tetranychus urticae spray test, OP-resistant (Example B, French beans)
Procedure: as §7
French beans (Phaseolus vulgaris) which are heavily infested with all stages of the two spotted spidermite (Tetranychus urticae), are sprayed with a preparation of the active ingredient of the desired concentration.
After the specified period of time, mortality in % is determined 100% means all spider mites have been killed and 0% means none of the spider mites have been killed. The mortality values determined thus are recalculated using the Colby-formula (see sheet 1).

[7] = tested on: fall armyworm larvae (Spodoptera frugiperda); assay: Spodoptera frugiperda spray test (Example C3, maize leaf sections)
Procedure: as §7, with “preparation of the active compound,” for “preparation of active compound,”
as §4, §5

O=C(NC(=O)c1c(F)cccc1F)Nc1cc(Cl)c(Oc2ncc(C(F)(F)F)cc2Cl)c(Cl)c1 [Chlorfluazuron]
Efficacy in % after 2 d ([1]; 0.4 ppm): 0%
Efficacy in % after 3 d ([1]; 0.4 ppm): 30%
Efficacy in % after 2 d ([2]; 2 g ai/ha): 0%
Efficacy in % after 6 d ([2]; 2 g ai/ha): 0%
Efficacy in % after 6 d ([3]; 8 g ai/ha): 0%

CCOCn1c(-c2ccc(Cl)cc2)c(C#N)c(Br)c1C(F)(F)F [Chlorfenapyr]
Efficacy in % after 3 d ([1]; 0.8 ppm): 0%
Efficacy in % after 2 d ([1]; 1.6 ppm): 0%
Efficacy in % after 2 d ([4]; 4 ppm): 20%
Efficacy in % after 1 d ([4]; 8 ppm): 5%
Efficacy in % after 6 d ([3]; 4 g ai/ha): 0%

Cc1cc(C(F)(C(F)(F)F)C(F)(F)F)ccc1NC(=O)c1cccc(Cl)c1C(=O)NC(C)(C)C#N [(I-5)]
Efficacy in % after 6 d ([5]; 4 g ai/ha): 0%
Efficacy in % after 2 d ([1]; 0.04 ppm): 0%
Efficacy in % after 3 d ([1]; 0.04 ppm): 0%
Efficacy in % after 2 d ([1]; 0.08 ppm): 10%
Efficacy in % after 3 d ([1]; 0.08 ppm): 20%
Efficacy in % after 6 d ([6]; 2 g ai/ha): 0%
Efficacy in % after 6 d ([6]; 4 g ai/ha): 0%
Efficacy in % after 6 d ([6]; 10 g ai/ha): 0%
Efficacy in % after 6 d ([7]; 0.25 g ai/ha): 0%
Efficacy in % after 6 d ([7]; 3 g ai/ha): 33%
Efficacy in % after 2 d ([2]; 1 g ai/ha): 0%
Efficacy in % after 6 d ([2]; 1 g ai/ha): 33%
Efficacy in % after 2 d ([4]; 0.8 ppm): 0%
Efficacy in % after 1 d ([4]; 1.6 ppm): 0%
Efficacy in % after 6 d ([3]; 2 g ai/ha): 0%
Efficacy in % after 2 d ([3]; 4 g ai/ha): 0%
Efficacy in % after 6 d ([3]; 4 g ai/ha): 0%

COC(=O)N(C(=O)N1CO[C@@]2(C(=O)OC)Cc3cc(Cl)ccc3C2=N1)c1ccc(OC(F)(F)F)cc1 [Indoxacarb]
Efficacy in % after 2 d ([1]; 0.2 ppm): 10%
Efficacy in % after 3 d ([1]; 0.2 ppm): 20%
Efficacy in % after 2 d ([2]; 0.1 g ai/ha): 0%
Efficacy in % after 6 d ([2]; 0.1 g ai/ha): 0%
Efficacy in % after 6 d ([3]; 4 g ai/ha): 0%
Efficacy in % after 2 d ([3]; 8 g ai/ha): 50%
Efficacy in % after 6 d ([3]; 8 g ai/ha): 50%

CCOC(=O)OC1=C(c2cc(C)ccc2C)C(=O)N[C@]12CC[C@@H](OC)CC2 [Spirotetramat]
Efficacy in % after 6 d ([5]; 0.8 g ai/ha): 0%
Efficacy in % after 6 d ([6]; 0.8 g ai/ha): 30%
Efficacy in % after 6 d ([6]; 2 g ai/ha): 20%
Efficacy in % after 6 d ([7]; 15 g ai/ha): 0%
